Laboratory results from US10738035B2, “Hepatitis B antiviral agents” (Enanta Pharmaceuticals, Inc., priority 2015, dated 2020).

System: not listed separately
Assay: Compound toxicity, ATPLite (CC50)
Conditions: human, HepAD38 cells
Protocol: (§1) Briefly, cells are passaged upon attaining confluency in DMEM/F12 media in the presence of 10% FBS, Penn/Strep, 250 μg/mL G418, and 1 μg/ml tetracycline. Novel compounds are screened by first washing cells three times with PBS to remove tetracycline, and plating in 96 well plates at 35,000 cells/well. Compounds dissolved in DMSO are then diluted 1:200 into wells containing cells. Five days after compound addition, material is harvested for analysis.
Compound toxicity is evaluated by seeding cells at 15,000 cells/well and treating with compound as described above.

**Q.** With `Cn1nc(NC(=O)N2CCC(O)CC2)cc1C(=O)Nc1ccc(-c2ccccc2)cc1` [Example 70] as the compound, how does the CC50 at 3 days read?
**A.** > 30 µM

**Q.** Which CC50 at 3 days does the source give for `O=C(Nc1cc(F)c(F)c(F)c1)c1ccc(Cl)c(NS(=O)(=O)N2CCC(O)CC2)c1` [Example 71] here?
**A.** > 30 µM

**Q.** With `COC(=O)c1ccc(NC(=O)c2cc(NC(=O)N3CCC(O)CC3)nn2C)cc1` [Example 72] as the compound, how does the CC50 at 3 days read?
**A.** > 30 µM

**Q.** Which CC50 at 3 days does the source give for `COC(=O)c1cccc(NC(=O)c2cc(NC(=O)N3CCC(O)CC3)nn2C)c1` [Example 73] here?
**A.** > 30 µM

**Q.** For `Cn1nc(NC(=O)N2CCC(O)CC2)cc1C(=O)Nc1ccc(C(=O)O)cc1` [Example 74], which CC50 at 3 days is on record?
**A.** > 30 µM

System: hepatitis B virus (HBV)
Assay: HepAD38 antiviral assay (viral product accumulation, EC50)
Conditions: HePAD38, 120 h, read-out: HepAD38 EC50
Protocol: as §1
On harvest day, virion DNA is obtained by lysing with Sidestep Lysis and Stabilization Buffer and then quantified via quantitative real time PCR. Commercially available ELISA kits are used to quantitate the viral proteins HBsAg (Alpco) or HbeAg (US Biological) by following the manufacturer's recommended protocol after diluting samples to match the linear range of their respective assays.

**Q.** With `Cn1nc(NC(=O)N2CCC(O)CC2)cc1C(=O)Nc1ccc(-c2ccccc2)cc1` [Example 70] as the compound, how does the EC50 read?
**A.** > 10 µM

**Q.** For `O=C(Nc1cc(F)c(F)c(F)c1)c1ccc(Cl)c(NS(=O)(=O)N2CCC(O)CC2)c1` [Example 71], which EC50 is on record?
**A.** 1 to 10 µM

**Q.** Which EC50 does the source give for `COC(=O)c1ccc(NC(=O)c2cc(NC(=O)N3CCC(O)CC3)nn2C)cc1` [Example 72] here?
**A.** > 10 µM

**Q.** With `COC(=O)c1cccc(NC(=O)c2cc(NC(=O)N3CCC(O)CC3)nn2C)c1` [Example 73] as the compound, how does the EC50 read?
**A.** > 10 µM

**Q.** With `Cn1nc(NC(=O)N2CCC(O)CC2)cc1C(=O)Nc1ccc(C(=O)O)cc1` [Example 74] as the compound, how does the EC50 read?
**A.** > 10 µM
